Test results from article PMC6934184, “Selective DNA-PKcs inhibition extends the therapeutic index of localized radiotherapy and chemotherapy” (The Journal of Clinical Investigation, 2019).

Target: T1, ULK1 (Homo sapiens, UniProt O75385)
T1 construct: purchased Thermo Fisher Scientific (Life Technologies) SelectScreen
Assay: SelectScreen LanthaScreen
Format: binding
Conditions: 1 µM
Summary of the method: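 NU5455 was profiled across the SelectScreen Broad panel of kinase activity and binding assays. Z'LYTE reactions such as CSF1R ran at apparent Km ATP, while the Adapta CAMK1 assay used ATP listed as 10. Values are given as percent.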

T1 sequence (O75385 whole entry): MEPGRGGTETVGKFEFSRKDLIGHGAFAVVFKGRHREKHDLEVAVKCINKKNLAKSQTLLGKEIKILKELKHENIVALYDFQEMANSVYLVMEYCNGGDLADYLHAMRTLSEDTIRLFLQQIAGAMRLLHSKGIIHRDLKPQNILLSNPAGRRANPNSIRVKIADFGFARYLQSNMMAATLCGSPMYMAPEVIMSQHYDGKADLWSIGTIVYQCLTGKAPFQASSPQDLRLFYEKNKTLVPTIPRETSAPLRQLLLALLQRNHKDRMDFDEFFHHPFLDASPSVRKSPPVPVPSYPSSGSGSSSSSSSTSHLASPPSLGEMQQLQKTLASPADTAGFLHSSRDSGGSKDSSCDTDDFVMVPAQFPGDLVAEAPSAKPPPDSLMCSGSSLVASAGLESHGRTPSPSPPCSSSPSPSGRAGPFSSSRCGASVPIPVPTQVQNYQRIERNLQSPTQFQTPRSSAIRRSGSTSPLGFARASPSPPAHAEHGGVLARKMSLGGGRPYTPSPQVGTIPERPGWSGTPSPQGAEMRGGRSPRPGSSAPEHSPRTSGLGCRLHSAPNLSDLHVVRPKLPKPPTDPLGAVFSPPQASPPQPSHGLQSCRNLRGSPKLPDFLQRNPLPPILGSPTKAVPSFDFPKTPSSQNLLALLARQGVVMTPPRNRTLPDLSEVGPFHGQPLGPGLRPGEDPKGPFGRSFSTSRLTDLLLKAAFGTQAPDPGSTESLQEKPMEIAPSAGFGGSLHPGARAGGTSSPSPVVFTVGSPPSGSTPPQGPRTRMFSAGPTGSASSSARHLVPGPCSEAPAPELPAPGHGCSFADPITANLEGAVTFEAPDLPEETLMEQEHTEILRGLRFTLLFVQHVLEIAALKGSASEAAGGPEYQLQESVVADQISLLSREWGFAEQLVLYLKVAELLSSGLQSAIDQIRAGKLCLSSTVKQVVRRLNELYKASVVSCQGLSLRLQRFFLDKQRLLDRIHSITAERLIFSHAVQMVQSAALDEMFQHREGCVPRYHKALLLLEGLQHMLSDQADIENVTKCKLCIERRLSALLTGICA

## CN(C(=O)CN1CCOCC1)c1ccc2sc3c(-c4cccc5c(=O)cc(N6CC7CCC(C6)O7)oc45)cccc3c2c1 [NU5455]
  % displacement: 1.8%
